Laboratory results reported in patent publication US9034896B2, “N-(imidazolidin-2-ylidene)-heterocyclopenta[b]pyridine derivatives as modulators of alpha 2 adrenergic receptors” (Allergan, Inc., priority 2011, dated 2015).

Assays:
Format in all cases: cell-based
[1] = biological target: T1, Alpha 2C adrenergic receptor (Homo sapiens, UniProt P18825); assay: RSAT (Receptor Selection and Amplification Technology) assay, alpha 2C; conditions: for EC50: read-out: Intrinsic Activity EC50 Alpha 2C; for Intrinsic Activity (efficacy) Alpha 2C: relative efficacy compared to a standard full agonist
T1 construct: expressed in transfected cells
T1 sequence (P18825 1-462): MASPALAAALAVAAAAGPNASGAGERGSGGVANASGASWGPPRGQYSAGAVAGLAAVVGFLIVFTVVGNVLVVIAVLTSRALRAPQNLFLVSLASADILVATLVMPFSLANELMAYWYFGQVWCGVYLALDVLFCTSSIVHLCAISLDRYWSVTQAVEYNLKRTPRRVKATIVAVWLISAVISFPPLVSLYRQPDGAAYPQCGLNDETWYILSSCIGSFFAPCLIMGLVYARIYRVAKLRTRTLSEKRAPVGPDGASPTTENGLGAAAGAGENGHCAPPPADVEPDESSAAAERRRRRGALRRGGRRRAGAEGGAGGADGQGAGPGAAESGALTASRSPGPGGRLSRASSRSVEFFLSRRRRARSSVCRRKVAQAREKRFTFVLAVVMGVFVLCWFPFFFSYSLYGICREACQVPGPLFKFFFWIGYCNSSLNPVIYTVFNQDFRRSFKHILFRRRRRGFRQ
Method: (§1) Cells expressing each of the alpha 2 adrenergic receptors alone were incubated with the various compounds and a receptor-mediated growth response was measured. The compound's activity is expressed as its relative efficacy compared to a standard full agonist (see Table 3).

[2] = biological target: T2, Alpha 2A adrenergic receptor (Homo sapiens, UniProt P08913); assay: RSAT (Receptor Selection and Amplification Technology) assay, alpha 2A; conditions: for EC50: cells expressing alpha 2A receptor alone, receptor-mediated growth response, NA = not active, read-out: Intrinsic Activity EC50 Alpha 2A; for Intrinsic Activity (efficacy) Alpha 2A: relative efficacy compared to a standard full agonist
T2 construct: expressed in transfected cells
T2 sequence (P08913 1-465): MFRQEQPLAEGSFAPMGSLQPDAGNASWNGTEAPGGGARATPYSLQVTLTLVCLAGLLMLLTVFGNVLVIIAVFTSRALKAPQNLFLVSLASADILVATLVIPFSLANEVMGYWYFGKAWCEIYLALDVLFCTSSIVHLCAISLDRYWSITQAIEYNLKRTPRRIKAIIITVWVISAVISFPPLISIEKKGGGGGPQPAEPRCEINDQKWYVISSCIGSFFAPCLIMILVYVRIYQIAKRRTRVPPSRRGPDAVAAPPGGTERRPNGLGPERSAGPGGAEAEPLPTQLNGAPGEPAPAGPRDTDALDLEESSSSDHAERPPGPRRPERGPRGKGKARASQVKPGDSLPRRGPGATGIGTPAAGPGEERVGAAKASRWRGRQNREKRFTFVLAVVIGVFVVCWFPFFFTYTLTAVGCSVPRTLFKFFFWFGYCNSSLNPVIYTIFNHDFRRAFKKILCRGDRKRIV
Method: as §1

[3] = biological target: T3, Alpha 2B adrenergic receptor (Homo sapiens, UniProt P18089); assay: RSAT (Receptor Selection and Amplification Technology) assay, alpha 2B; conditions: for EC50 / Intrinsic Activity EC50 Alpha 2B: cells expressing alpha 2B receptor alone, receptor-mediated growth response, NA = not active; for EC50: read-out: Intrinsic Activity EC50 Alpha 2B; for Intrinsic Activity (efficacy) Alpha 2B: relative efficacy compared to a standard full agonist
T3 construct: expressed in transfected cells
T3 sequence (P18089 1-450): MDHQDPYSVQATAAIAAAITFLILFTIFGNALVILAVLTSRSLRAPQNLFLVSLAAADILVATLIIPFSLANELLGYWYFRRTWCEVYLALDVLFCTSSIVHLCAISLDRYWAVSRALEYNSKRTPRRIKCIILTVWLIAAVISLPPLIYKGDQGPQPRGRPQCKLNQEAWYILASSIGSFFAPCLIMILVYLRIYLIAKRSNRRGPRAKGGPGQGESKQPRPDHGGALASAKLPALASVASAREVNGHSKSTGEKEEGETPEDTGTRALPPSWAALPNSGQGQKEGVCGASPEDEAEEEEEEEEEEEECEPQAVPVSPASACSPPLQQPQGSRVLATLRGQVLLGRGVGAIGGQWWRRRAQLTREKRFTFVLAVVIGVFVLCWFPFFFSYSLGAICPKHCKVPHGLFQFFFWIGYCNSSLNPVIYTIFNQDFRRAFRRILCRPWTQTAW
Method: as §1

[4] = cells expressing alpha 2C receptor alone, receptor-mediated growth response, NA = not active

SMILES | EC50 [1, 4] | Intrinsic Activity (efficacy) Alpha 2C [1] | EC50 [2] | Intrinsic Activity (efficacy) Alpha 2A [2] | EC50 [3] | Intrinsic Activity (efficacy) Alpha 2B [3] | Intrinsic Activity EC50 Alpha 2C [1, 4] | Intrinsic Activity EC50 Alpha 2B [3]
Clc1c(N=C2NCCN2)cnc2[nH]ccc12 [Compound 2, 4-Chloro-N-(imidazolidin-2-ylidene)-1H-pyrrolo[2,3-b]pyridin-5-amine] | 10.5 nM | 0.91 | 25.2 nM | 0.73 | 5.36 nM | 0.72 | – | –
Cc1c(N=C2NCCN2)cnc2[nH]ccc12 [Compound 1, N-(4,5-dihydro-1H-imidazol-2-yl)-4-methyl-1H-pyrrolo[2,3-b]pyridin-5-amine] | – | (0.94) | 8.2 nM | 0.85 | – | (0.82) | potent | potent
c1nc2cc(N=C3NCCN3)cnc2s1 [Compound 6, N-(4,5-dihydro-1H-imidazol-2-yl)thiazolo[5,4-b]pyridin-6-amine] | 10 nM | 0.97 | – | – | 267 nM | 0.46 | – | –
Brc1c(N=C2NCCN2)cnc2[nH]ccc12 [Compound 3, 4-Bromo-N-(imidazolidin-2-ylidene)-1H-pyrrolo[2,3-b]pyridin-5-amine] | 31.2 nM | 0.84 | 62.2 nM | 0.16 | 32.6 nM | 0.17 | – | –
c1cc2cc(N=C3NCCN3)cnc2o1 [Compound 5, N-(imidazolidin-2-ylidene)furo[2,3-b]pyridin-5-amine] | 2110 nM | 0.73 | – | – | – | – | – | –
Cn1ccc2cc(N=C3NCCN3)cnc21 [Compound 4, N-(imidazolidin-2-ylidene)-1-methyl-1H-pyrrolo[2,3-b]pyridin-5-amine] | 31 nM | 0.93 | – | – | 114 nM | 0.57 | – | –
c1cc2cc(N=C3NCCN3)cnc2[nH]1 [Compound 7, N-(imidazolidin-2-ylidene)-1H-pyrrolo[2,3-b]pyridin-5-amine] | 7.3 nM | 0.94 | 16.2 nM | 0.89 | – | (0.87) | – | potent
c1nc2cc(N=C3NCCN3)cnc2[nH]1 [Compound 8, N-(imidazolidin-2-ylidene)-3H-imidazo[4,5-b]pyridin-6-amine] | 448 nM | 0.87 | – | – | 722 nM | 0.61 | – | –
